Laboratory results published in paper PMC6979384, “Characterization of the plant homeodomain (PHD) reader family for their histone tail interactions” (Epigenetics & Chromatin, 2020).

How the values were obtained:
Assay in all cases: Histone peptide microarray
Format in all cases: binding, human
Conditions in all cases: histone peptide array
[1] = system: PHF23
How it was run: (§1)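 Using an optimized microarray protocol, purified GST-tagged PHD fingers were incubated at 0.5 μM on 293 histone peptides with single or multiple modifications, and array signal was recorded as the average of 4 replicates.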

[2] = system: BPTF (PB)
How it was run: as §1

[3] = system: PHF21A
How it was run: as §1

[4] = system: CHD4 (PPCC)
How it was run: as §1

[5] = system: KDM5B (1)
How it was run: as §1

[6] = system: AIRE (PP)
How it was run: as §1

[7] = system: ING3
How it was run: as §1

[8] = system: PHF8
How it was run: as §1

[9] = system: ING2
How it was run: as §1

[10] = system: KDM5A (1)
How it was run: as §1

[11] = system: TAF3
How it was run: as §1

[12] = system: KDM5B (3)
How it was run: as §1

[13] = system: BAZ2B
How it was run: as §1

[14] = system: KDM4C (TTP)
How it was run: as §1

[15] = system: SP140L
How it was run: as §1

[16] = system: ING1
How it was run: as §1

[17] = system: KDM5A (3)
How it was run: as §1

[18] = system: TRIM66 (PB)
How it was run: as §1

[19] = system: CHD5 (PPCC)
How it was run: as §1

[20] = system: DIDO1
How it was run: as §1

[21] = system: CHD5 (PCC)
How it was run: as §1

[22] = system: RAG2
How it was run: as §1

[23] = system: MORC3 (CW)
How it was run: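 GST-PHD reader, 0.5 μM, probed on 293-peptide histone array (single/combinatorial PTMs); optimized array protocol; signal = mean ± SD, n = 4.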

[24] = system: ING4
How it was run: as §1

[25] = system: ING5
How it was run: as §1

[26] = system: DPF2 (PPC2W2)
How it was run: as §1

[27] = system: PHRF1 (RP)
How it was run: as §1

[28] = system: PHF13
How it was run: as §1

[29] = system: KDM7A
How it was run: as §1

[30] = system: PHF2
How it was run: as §1

[31] = system: MLL5
How it was run: as §1

[32] = sheet "Array Heatmap", GST-tagged reader, total n = 4

## H3T3p: H3 1-20 [Peptide H3T3p]
[1]; GST-tagged PHF23, arrays performed twice, n of 4
  Array Heatmap signal, PHF23: 0.4911
[1]; [32]
  Array Heatmap signal, PHF23: 0.575
[2]; GST-tagged BPTF (PB = PHD + Bromodomain), arrays performed twice, n of 4
  Array Heatmap signal, BPTF (PB): 0.3368
[2]; [32]
  Array Heatmap signal, BPTF (PB): 0.3878
[3]; GST-tagged PHF21A, arrays performed twice, n of 4
  Array Heatmap signal, PHF21A: 0.4766
[3]; [32]
  Array Heatmap signal, PHF21A: 0.5237
[4]; GST-tagged CHD4 (PPCC = Dual PHD + Dual Chromodomain), arrays performed twice, n of 4
  Array Heatmap signal, CHD4 (PPCC): 0.5719
[4]; [32]
  Array Heatmap signal, CHD4 (PPCC): 0.6586
[5]; GST-tagged KDM5B (1), arrays performed twice, n of 4
  Array Heatmap signal, KDM5B (1): 0.6719
[5]; [32]
  Array Heatmap signal, KDM5B (1): 0.685
[6]; GST-tagged AIRE (PP), arrays performed twice, n of 4
  Array Heatmap signal, AIRE (PP): 0.5392
[6]; [32]
  Array Heatmap signal, AIRE (PP): 0.548
[7]; GST-tagged ING3, arrays performed twice, n of 4
  Array Heatmap signal, ING3: 0.4483
[7]; [32]
  Array Heatmap signal, ING3: 0.5306
[8]; GST-tagged PHF8, arrays performed twice, n of 4
  Array Heatmap signal, PHF8: 0.352
[8]; [32]
  Array Heatmap signal, PHF8: 0.4275
[9]; GST-tagged ING2, arrays performed twice, n of 4
  Array Heatmap signal, ING2: 0.5798
[9]; [32]
  Array Heatmap signal, ING2: 0.6196
[10]; GST-tagged KDM5A (1), arrays performed twice, n of 4
  Array Heatmap signal, KDM5A (1): 0.4969
[10]; [32]
  Array Heatmap signal, KDM5A (1): 0.535
[11]; GST-tagged TAF3, arrays performed twice, n of 4
  Array Heatmap signal, TAF3: 0.2971
[11]; [32]
  Array Heatmap signal, TAF3: 0.3113
[12]; GST-tagged KDM5B (3), arrays performed twice, n of 4
  Array Heatmap signal, KDM5B (3): 0.5071
[12]; [32]
  Array Heatmap signal, KDM5B (3): 0.5631
[13]; GST-tagged BAZ2B, arrays performed twice, n of 4
  Array Heatmap signal, BAZ2B: 0.469
[13]; [32]
  Array Heatmap signal, BAZ2B: 0.5253
[14]; GST-tagged KDM4C (TTP = Tandem Tudor domain + PHD), arrays performed twice, n of 4
  Array Heatmap signal, KDM4C (TTP): 0.5211
[14]; [32]
  Array Heatmap signal, KDM4C (TTP): 0.5646
[15]; GST-tagged SP140L, arrays performed twice, n of 4
  Array Heatmap signal, SP140L: 0.3332
[15]; [32]
  Array Heatmap signal, SP140L: 0.3882
[16]; GST-tagged ING1, arrays performed twice, n of 4
  Array Heatmap signal, ING1: 0.5096
[16]; [32]
  Array Heatmap signal, ING1: 0.5929
[17]; GST-tagged KDM5A (3), arrays performed twice, n of 4
  Array Heatmap signal, KDM5A (3): 0.3913
[17]; [32]
  Array Heatmap signal, KDM5A (3): 0.4935
[18]; GST-tagged TRIM66 (PB = PHD + Bromodomain), arrays performed twice, n of 4
  Array Heatmap signal, TRIM66 (PB): 0.6313
[18]; [32]
  Array Heatmap signal, TRIM66 (PB): 0.6558
[19]; GST-tagged CHD5 (PPCC = Dual PHD + Dual Chromodomain), arrays performed twice, n of 4
  Array Heatmap signal, CHD5 (PPCC): 0.549
[19]; [32]
  Array Heatmap signal, CHD5 (PPCC): 0.6245
[20]; GST-tagged DIDO1, arrays performed twice, n of 4
  Array Heatmap signal, DIDO1: 0.6402
[20]; [32]
  Array Heatmap signal, DIDO1: 0.7808
[21]; GST-tagged CHD5 (PCC = PHD + Dual Chromodomain), arrays performed twice, n of 4
  Array Heatmap signal, CHD5 (PCC): 0.8206
[21]; [32]
  Array Heatmap signal, CHD5 (PCC): 0.8423
[22]; GST-tagged RAG2, arrays performed twice, n of 4
  Array Heatmap signal, RAG2: 0.2333
[22]; [32]
  Array Heatmap signal, RAG2: 0.2772
[23]; GST-tagged MORC3 (CW = CW-type Zn-finger), arrays performed twice, n of 4
  Array Heatmap signal, MORC3 (CW): 0.3786
[23]; [32]
  Array Heatmap signal, MORC3 (CW): 0.4886
[24]; GST-tagged ING4, arrays performed twice, n of 4
  Array Heatmap signal, ING4: 0.4601
[24]; [32]
  Array Heatmap signal, ING4: 0.5373
[25]; GST-tagged ING5, arrays performed twice, n of 4
  Array Heatmap signal, ING5: 0.3543
[25]; [32]
  Array Heatmap signal, ING5: 0.4158
[26]; GST-tagged DPF2 (PPC2W2 = Dual PHD + C2W2-type Zn-finger), arrays performed twice, n of 4
  Array Heatmap signal, DPF2 (PPC2W2): 0.671
[26]; [32]
  Array Heatmap signal, DPF2 (PPC2W2): 0.7196
[27]; GST-tagged PHRF1 (RP), arrays performed twice, n of 4
  Array Heatmap signal, PHRF1 (RP): 0.4037
[27]; [32]
  Array Heatmap signal, PHRF1 (RP): 0.5425
[28]; GST-tagged PHF13, arrays performed twice, n of 4
  Array Heatmap signal, PHF13: 0.5934
[28]; [32]
  Array Heatmap signal, PHF13: 0.6741
[29]; GST-tagged KDM7A, arrays performed twice, n of 4
  Array Heatmap signal, KDM7A: 0.4522
[29]; [32]
  Array Heatmap signal, KDM7A: 0.4256
[30]; GST-tagged PHF2, arrays performed twice, n of 4
  Array Heatmap signal, PHF2: 0.434
[30]; [32]
  Array Heatmap signal, PHF2: 0.5551
[31]; GST-tagged MLL5, arrays performed twice, n of 4
  Array Heatmap signal, MLL5: 0.5378
[31]; [32]
  Array Heatmap signal, MLL5: 0.5888

## H3T6p + K9ac + K14ac + K18ac: H3 1-20
[1]; [32]
  Array Heatmap signal, PHF23: 0.5587
[2]; [32]
  Array Heatmap signal, BPTF (PB): 0.3772
[3]; [32]
  Array Heatmap signal, PHF21A: 0.4965
[4]; [32]
  Array Heatmap signal, CHD4 (PPCC): 0.6105
[5]; [32]
  Array Heatmap signal, KDM5B (1): 0.6556
[6]; [32]
  Array Heatmap signal, AIRE (PP): 0.4905
[7]; [32]
  Array Heatmap signal, ING3: 0.5178
[8]; [32]
  Array Heatmap signal, PHF8: 0.3706
[9]; [32]
  Array Heatmap signal, ING2: 0.6332
[10]; [32]
  Array Heatmap signal, KDM5A (1): 0.5024
[11]; [32]
  Array Heatmap signal, TAF3: 0.2973
[12]; [32]
  Array Heatmap signal, KDM5B (3): 0.5165
[13]; [32]
  Array Heatmap signal, BAZ2B: 0.5434
[14]; [32]
  Array Heatmap signal, KDM4C (TTP): 0.5471
[15]; [32]
  Array Heatmap signal, SP140L: 0.3823
[16]; [32]
  Array Heatmap signal, ING1: 0.5258
[17]; [32]
  Array Heatmap signal, KDM5A (3): 0.5014
[18]; [32]
  Array Heatmap signal, TRIM66 (PB): 0.6292
[19]; [32]
  Array Heatmap signal, CHD5 (PPCC): 0.5917
[20]; [32]
  Array Heatmap signal, DIDO1: 0.7306
[21]; [32]
  Array Heatmap signal, CHD5 (PCC): 0.8634
[22]; [32]
  Array Heatmap signal, RAG2: 0.2892
[23]; [32]
  Array Heatmap signal, MORC3 (CW): 0.436
[24]; [32]
  Array Heatmap signal, ING4: 0.4858
[25]; [32]
  Array Heatmap signal, ING5: 0.4002
[26]; [32]
  Array Heatmap signal, DPF2 (PPC2W2): 0.6625
[27]; [32]
  Array Heatmap signal, PHRF1 (RP): 0.4494
[28]; [32]
  Array Heatmap signal, PHF13: 0.6581
[29]; [32]
  Array Heatmap signal, KDM7A: 0.5379
[30]; [32]
  Array Heatmap signal, PHF2: 0.4724
[31]; [32]
  Array Heatmap signal, MLL5: 0.6174
